Measurements as given in US9598433B2, “Hepatitis C virus inhibitors” (BRISTOL-MYERS SQUIBB COMPANY, priority 2012, dated 2017).
pEC50: −log10 of the molar value. Like-named read-outs stand apart in the source and are kept apart here.

Key:
[1] = tested on: HCV genotype 1a (H77 strain) replicon in HUH-7 cells; test: HCV replicon luciferase reporter assay, genotype 1a; format: cell-based; conditions: Hepatitis C virus, 72 h, genotype 1a replicon, 3 days incubation
Summary of the method: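 Stable HUH-7 line carrying luciferase-reporter genotype 1a (H77) replicon with adaptive NS3 P1496L and NS5A S2204I mutations; 3.0×10^3 cells/well in 4% FCS, 0.5% DMSO, twenty-point 3-fold titration, 3 days at 37 °C. Renilla luminescence with 7.5 μM EnduRen; EC50 by four-parameter logistic fit; CC50 by multiplexed Cell Titer-Blue.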

[2] = tested on: HCV genotype 1b (Con1) replicon in HUH-7 cells; test: HCV replicon luciferase reporter assay, genotype 1b; format: cell-based; conditions: Hepatitis C virus, 72 h, genotype 1b replicon, 3 days incubation
Summary of the method: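 The HUH-7 cells stably carried a genotype 1b Con1 replicon with a Renilla luciferase reporter and the S1179I adaptive mutation. Luminescence was read after 2 h with 7.5 μM EnduRen, and EC50s came from four-parameter logistic fits.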

**Q.** How did the pEC50 ([1]; read-out: LE_1a (EC50, range)) turn out when COc1cc(F)cc2c(O[C@@H]3C[C@H]4C(=O)N[C@]5(C(=O)NS(=O)(=O)C6(CF)CC6)C[C@H]5/C=C\CC[C@@H](C)O[C@@H](C)[C@H](NC(=O)OC(C)(C)C(F)F)C(=O)N4C3)nccc12 [Compound 2022, 1,1-difluoro-2-methylpropan-2-yl ((2R,6S,7S,9R,13aS,14aR,16aS,Z)-2-((7-fluoro-5-methoxyisoquinolin-1-yl)oxy)-14a-(((1-(fluoromethyl)cyclopropyl)sulfonyl)carbamoyl)-7,9-dimethyl-5,16-dioxo-2,3,5,6,7,9,10,11,13a,14,14a,15,16,16a-tetradecahydro-1H-cyclopropa[i]pyrrolo[1,2-e][1,5,8]oxadiazacyclopentadecin-6-yl)carbamate] was run?
**A.** 8.30 to 9.00

**Q.** What about the pEC50 ([2]; read-out: LE_1b (EC50, range)) of the same compound?
**A.** 8.30 to 9.00

**Q.** CC[C@@H]1O[C@H](C)CC/C=C\[C@@H]2C[C@@]2(C(=O)NS(=O)(=O)C2(C)CC2)NC(=O)[C@@H]2C[C@@H](Oc3nc4c(c5ccccc35)CCCO4)CN2C(=O)[C@H]1NC(=O)OC(C)(C)C(C)(F)F [Compound 2301, 3,3-difluoro-2-methylbutan-2-yl ((2R,6S,7S,9R,13aS,14aR,16aS,Z)-2-((2,3-dihydro-1H-pyrano[2,3-c]isoquinolin-6-yl)oxy)-7-ethyl-9-methyl-14a-(((1-methylcyclopropyl)sulfonyl)carbamoyl)-5,16-dioxo-2,3,5,6,7,9,10,11,13a,14,14a,15,16,16a-tetradecahydro-1H-cyclopropa[i]pyrrolo[1,2-e][1,5,8]oxadiazacyclopentadecin-6-yl)carbamate] was tested. Which pEC50 ([1]; read-out: LE_1a (EC50, range)) did it give?
**A.** 9.00 to 9.29

**Q.** And the pEC50 ([2]; read-out: LE_1b (EC50, range))?
**A.** 9.30 to 10.00

**Q.** How did the pEC50 ([1]; read-out: LE_1a (EC50, range)) turn out when CC[C@@H]1O[C@H](C)CC/C=C\[C@@H]2C[C@@]2(C(=O)NS(=O)(=O)C2(C)CC2)NC(=O)[C@@H]2C[C@@H](Oc3nc4c(c5ccccc35)CCCO4)CN2C(=O)[C@H]1NC(=O)OC(C)(C)C(F)(F)F [Compound 2302, 1,1,1-trifluoro-2-methylpropan-2-yl ((2R,6S,7S,9R,13aS,14aR,16aS,Z)-2-((2,3-dihydro-1H-pyrano[2,3-c]isoquinolin-6-yl)oxy)-7-ethyl-9-methyl-14a-(((1-methylcyclopropyl)sulfonyl)carbamoyl)-5,16-dioxo-2,3,5,6,7,9,10,11,13a,14,14a,15,16,16a-tetradecahydro-1H-cyclopropa[i]pyrrolo[1,2-e][1,5,8]oxadiazacyclopentadecin-6-yl)carbamate] was run?
**A.** 9.00 to 9.29

**Q.** What about the pEC50 ([2]; read-out: LE_1b (EC50, range)) of the same compound?
**A.** 9.30 to 10.00

**Q.** C[C@@H]1CC/C=C\[C@@H]2C[C@@]2(C(=O)NS(=O)(=O)C2(C)CC2)NC(=O)[C@@H]2C[C@@H](Oc3nc4c(c5ccccc35)CCCO4)CN2C(=O)[C@@H](NC(=O)OC(C)(C)C(C)(F)F)[C@H](C)O1 [Compound 2303, 3,3-difluoro-2-methylbutan-2-yl ((2R,6S,7S,9R,13aS,14aR,16aS,Z)-2-((2,3-dihydro-1H-pyrano[2,3-c]isoquinolin-6-yl)oxy)-7,9-dimethyl-14a-(((1-methylcyclopropyl)sulfonyl)carbamoyl)-5,16-dioxo-2,3,5,6,7,9,10,11,13a,14,14a,15,16,16a-tetradecahydro-1H-cyclopropa[i]pyrrolo[1,2-e][1,5,8]oxadiazacyclopentadecin-6-yl)carbamate] was tested. Which pEC50 ([1]; read-out: LE_1a (EC50, range)) did it give?
**A.** 9.00 to 9.29

**Q.** What about the pEC50 ([2]; read-out: LE_1b (EC50, range)) of the same compound?
**A.** 9.00 to 9.29

**Q.** How did the pEC50 ([1]; read-out: LE_1a (EC50)) turn out when C[C@@H]1CC/C=C\[C@@H]2C[C@@]2(C(=O)NS(=O)(=O)C2(C)CC2)NC(=O)[C@@H]2C[C@@H](Oc3nc4c(c5ccccc35)CCCO4)CN2C(=O)[C@@H](NC(=O)OC(C)(C)C(F)F)[C@H](C)O1 [Compound 2304, 1,1-difluoro-2-methylpropan-2-yl ((2R,6S,7S,9R,13aS,14aR,16aS,Z)-2-((2,3-dihydro-1H-pyrano[2,3-c]isoquinolin-6-yl)oxy)-7,9-dimethyl-14a-(((1-methylcyclopropyl)sulfonyl)carbamoyl)-5,16-dioxo-2,3,5,6,7,9,10,11,13a,14,14a,15,16,16a-tetradecahydro-1H-cyclopropa[i]pyrrolo[1,2-e][1,5,8]oxadiazacyclopentadecin-6-yl)carbamate] was run?
**A.** 9.31

**Q.** And the pEC50 ([1]; read-out: LE_1a (EC50, range))?
**A.** 9.30 to 10.00

**Q.** What about the pEC50 ([2]; read-out: LE_1b (EC50)) of the same compound?
**A.** 9.19

**Q.** What about the pEC50 ([2]; read-out: LE_1b (EC50, range)) of the same compound?
**A.** 9.00 to 9.29

**Q.** How did the pEC50 ([1]; read-out: LE_1a (EC50, range)) turn out when C[C@@H]1CC/C=C\[C@@H]2C[C@@]2(C(=O)NS(=O)(=O)C2(C)CC2)NC(=O)[C@@H]2C[C@@H](Oc3nc4c(c5ccccc35)CCCO4)CN2C(=O)[C@@H](NC(=O)OC(C)(C)C(F)(F)F)[C@H](C)O1 [Compound 2305, 1,1,1-trifluoro-2-methylpropan-2-yl ((2R,6S,7S,9R,13aS,14aR,16aS,Z)-2-((2,3-dihydro-1H-pyrano[2,3-c]isoquinolin-6-yl)oxy)-7,9-dimethyl-14a-(((1-methylcyclopropyl)sulfonyl)carbamoyl)-5,16-dioxo-2,3,5,6,7,9,10,11,13a,14,14a,15,16,16a-tetradecahydro-1H-cyclopropa[i]pyrrolo[1,2-e][1,5,8]oxadiazacyclopentadecin-6-yl)carbamate] was run?
**A.** 9.00 to 9.29

**Q.** What about the pEC50 ([2]; read-out: LE_1b (EC50, range)) of the same compound?
**A.** 9.00 to 9.29

**Q.** Which results are given for COc1ccc2c(O[C@@H]3C[C@H]4C(=O)N[C@]5(C(=O)NS(=O)(=O)C6(C)CC6)C[C@H]5/C=C\CC[C@@H](C)O[C@@H](C)[C@H](NC(=O)OC(C)(C)C(F)(F)F)C(=O)N4C3)nc3c(c2c1)CCCO3 [Compound 2306, 1,1,1-trifluoro-2-methylpropan-2-yl ((2R,6S,7S,9R,13aS,14aR,16aS,Z)-2-((9-methoxy-2,3-dihydro-1H-pyrano[2,3-c]isoquinolin-6-yl)oxy)-7,9-dimethyl-14a-(((1-methylcyclopropyl)sulfonyl)carbamoyl)-5,16-dioxo-2,3,5,6,7,9,10,11,13a,14,14a,15,16,16a-tetradecahydro-1H-cyclopropa[i]pyrrolo[1,2-e][1,5,8]oxadiazacyclopentadecin-6-yl)carbamate]?
**A.** pEC50 ([1]; read-out: LE_1a (EC50, range)): 9.30 to 10.00; pEC50 ([2]; read-out: LE_1b (EC50, range)): 9.30 to 10.00

**Q.** CC[C@@H]1O[C@H](C)CC/C=C\[C@@H]2C[C@@]2(C(=O)NS(=O)(=O)C2(C)CC2)NC(=O)[C@@H]2C[C@@H](Oc3nc4c(c5cc(OC)ccc35)CCCO4)CN2C(=O)[C@H]1NC(=O)OC(C)(C)C(F)(F)F [Compound 2307, 1,1,1-trifluoro-2-methylpropan-2-yl ((2R,6S,7S,9R,13aS,14aR,16aS,Z)-7-ethyl-2-((9-methoxy-2,3-dihydro-1H-pyrano[2,3-c]isoquinolin-6-yl)oxy)-9-methyl-14a-(((1-methylcyclopropyl)sulfonyl)carbamoyl)-5,16-dioxo-2,3,5,6,7,9,10,11,13a,14,14a,15,16,16a-tetradecahydro-1H-cyclopropa[i]pyrrolo[1,2-e][1,5,8]oxadiazacyclopentadecin-6-yl)carbamate] was tested. Which pEC50 ([1]; read-out: LE_1a (EC50, range)) did it give?
**A.** 9.30 to 10.00

**Q.** And the pEC50 ([2]; read-out: LE_1b (EC50, range))?
**A.** 9.30 to 10.00

**Q.** Which results are given for CC[C@@H]1O[C@H](C)CC/C=C\[C@@H]2C[C@@]2(C(=O)NS(=O)(=O)C2(C)CC2)NC(=O)[C@@H]2C[C@@H](Oc3nc4c(c5cc(OC)ccc35)CCCO4)CN2C(=O)[C@H]1NC(=O)OC(C)(C)C(C)(F)F [Compound 2308, 3,3-difluoro-2-methylbutan-2-yl ((2R,6S,7S,9R,13aS,14aR,16aS,Z)-7-ethyl-2-((9-methoxy-2,3-dihydro-1H-pyrano[2,3-c]isoquinolin-6-yl)oxy)-9-methyl-14a-(((1-methylcyclopropyl)sulfonyl)carbamoyl)-5,16-dioxo-2,3,5,6,7,9,10,11,13a,14,14a,15,16,16a-tetradecahydro-1H-cyclopropa[i]pyrrolo[1,2-e][1,5,8]oxadiazacyclopentadecin-6-yl)carbamate]?
**A.** pEC50 ([1]; read-out: LE_1a (EC50, range)): 9.30 to 10.00; pEC50 ([2]; read-out: LE_1b (EC50, range)): 9.30 to 10.00

**Q.** Which results are given for COc1ccc2c(O[C@@H]3C[C@H]4C(=O)N[C@]5(C(=O)NS(=O)(=O)C6(C)CC6)C[C@H]5/C=C\CC[C@@H](C)O[C@@H](C)[C@H](NC(=O)OC(C)(C)C(C)(F)F)C(=O)N4C3)nc3c(c2c1)CCCO3 [Compound 2309, 3,3-difluoro-2-methylbutan-2-yl ((2R,6S,7S,9R,13aS,14aR,16aS,Z)-2-((9-methoxy-2,3-dihydro-1H-pyrano[2,3-c]isoquinolin-6-yl)oxy)-7,9-dimethyl-14a-(((1-methylcyclopropyl)sulfonyl)carbamoyl)-5,16-dioxo-2,3,5,6,7,9,10,11,13a,14,14a,15,16,16a-tetradecahydro-1H-cyclopropa[i]pyrrolo[1,2-e][1,5,8]oxadiazacyclopentadecin-6-yl)carbamate]?
**A.** pEC50 ([1]; read-out: LE_1a (EC50, range)): 9.00 to 9.29; pEC50 ([2]; read-out: LE_1b (EC50, range)): 9.00 to 9.29

**Q.** How did the pEC50 ([1]; read-out: LE_1a (EC50, range)) turn out when COc1ccc2c(O[C@@H]3C[C@H]4C(=O)N[C@]5(C(=O)NS(=O)(=O)C6(C)CC6)C[C@H]5/C=C\CC[C@@H](C)O[C@@H](C)[C@H](NC(=O)OC(C)(C)C(F)F)C(=O)N4C3)nc3c(c2c1)CCCO3 [Compound 2310, 1,1-difluoro-2-methylpropan-2-yl ((2R,6S,7S,9R,13aS,14aR,16aS,Z)-2-((9-methoxy-2,3-dihydro-1H-pyrano[2,3-c]isoquinolin-6-yl)oxy)-7,9-dimethyl-14a-(((1-methylcyclopropyl)sulfonyl)carbamoyl)-5,16-dioxo-2,3,5,6,7,9,10,11,13a,14,14a,15,16,16a-tetradecahydro-1H-cyclopropa[i]pyrrolo[1,2-e][1,5,8]oxadiazacyclopentadecin-6-yl)carbamate] was run?
**A.** 9.30 to 10.00

**Q.** And the pEC50 ([2]; read-out: LE_1b (EC50, range))?
**A.** 9.30 to 10.00

**Q.** With CC[C@@H]1O[C@H](C)CC/C=C\[C@@H]2C[C@@]2(C(=O)NS(=O)(=O)C2(C)CC2)NC(=O)[C@@H]2C[C@@H](Oc3nc4c(c5cc(OC)ccc35)CCCO4)CN2C(=O)[C@H]1NC(=O)OC(C)(C)C(F)F [Compound 2311, 1,1-difluoro-2-methylpropan-2-yl ((2R,6S,7S,9R,13aS,14aR,16aS,Z)-7-ethyl-2-((9-methoxy-2,3-dihydro-1H-pyrano[2,3-c]isoquinolin-6-yl)oxy)-9-methyl-14a-(((1-methylcyclopropyl)sulfonyl)carbamoyl)-5,16-dioxo-2,3,5,6,7,9,10,11,13a,14,14a,15,16,16a-tetradecahydro-1H-cyclopropa[i]pyrrolo[1,2-e][1,5,8]oxadiazacyclopentadecin-6-yl)carbamate] as the compound, how does the pEC50 ([1]; read-out: LE_1a (EC50, range)) read?
**A.** 9.30 to 10.00

**Q.** And the pEC50 ([2]; read-out: LE_1b (EC50, range))?
**A.** 9.30 to 10.00
